# Experiments:
# [1] = tested on: phosphorylation of ERK, KRAS G12C in NCI-H358 cells; assay: pERK inhibition assay; format: cell-based; settings: Homo sapiens, NCI-H358, 4 h
# Procedure: (§1) This assay is to measure the ability of test compounds in inhibiting the phosphorylation of ERK, the downstream signaling of KRAS G12C in NCI-H358 cells, KRAS G12D in AGS cells, and KRAS G12V in SW620. NCI-H358 (ATCC-CRL5807) cells, AGS (ATCC-CRL-1739) cells, SW620 (ATCC-CCL-227) cells were all grown and maintained using RPMI-1640 medium (Thermo Fisher Scientific) with 10% fetal bovine serum and 1% penicillin/streptomycin. On the day prior to compound addition, cells were plated in tissue culture-treated 96 well plates (Corning-3699) at a density of 30,000 cell/well, 20,000 cell/well, 30,000 cell/well for NCI-H358, AGS and SW620 respectively, and allowed for attachment overnight. Diluted compounds were then added in a final concentration of 0.5% DMSO. After 4 hours of incubation, the medium was removed, 100 μL of 4% formaldehyde was added, and the assay plates were incubated at room temperature for 20 minutes. The plates were then washed once with phosphate buffered saline (PBS), and permeabilized with 100 μL of chilled methanol for 10 minutes. Non-specific antibody binding to the plates was blocked using 50 μL 1X BSA blocking buffer (Thermo-37520, 10-fold dilution by Phosphate-Buffered Saline Tween (PBST) for at least 1 hour at room temperature.
# (§2) The amount of phosphor-ERK was determined using an antibody specific for phosphorylated form of ERK. Primary antibody (PERK, CST-4370, Cell Signaling Technology) was diluted 1:300 in blocking buffer, with 50 μL aliquoted to each well, and incubated overnight at 4° C. Cells was washed five times for 5 minutes with PBST. Secondary antibody (HRP-linked anti-rabbit IgG, CST-7074, Cell Signaling Technology) was diluted 1:1000 in blocking buffer, and 50 μL was added to each well and incubated 1-2 hrs at room temperature. Cells was washed […] for 5 minutes with PBST, 100 μL TMB ELISA substrate (abcam-ab171523) were added and gently shake for 20 minutes. 50 μL stop solution (abcam-ab 171529) were added, and then read the signal (OD450) by EnVision.
# (§3) IC50 was determined by fitting a 4-parameter sigmoidal concentration response model.
# [2] = tested on: phosphorylation of ERK, KRAS G12D in AGS cells; assay: pERK inhibition assay; format: cell-based; settings: Homo sapiens, AGS, 4 h
# Procedure: as §1, §2, §3
# [3] = tested on: phosphorylation of ERK, KRAS G12V in SW620; assay: pERK inhibition assay; format: cell-based; settings: Homo sapiens, SW-620, 4 h, SW620 cells
# Procedure: as §1, §2, §3
# KRAS G12C-BRAF complex = KRAS G12C-BRAF complex (Homo sapiens (Human), UniProt P01116+P62937, G12C); assay: KRAS-BRAF with CYPA (500 nM) interaction assay (TR-FRET, Example 136); format: biochemical; settings: KRAS G12C-BRAF disruption
# Procedure: In this example, TR-FRET was also used to measure the compound or compound-CYPA dependent disruption of the KRAS G12C-BRAF complex. This protocol was also used to measure disruption of KRAS G12D or KRAS G12V binding to BRAF by a compound of the invention, respectively. In assay buffer containing 25 mM HEPES PH=7.4 (4-(2-hydroxyethyl)-1-piperazineethanesulfonic acid, Thermo, 15630080), 0.002% Tween20, 0.1% BSA, 100 mM NaCl, 5 mM MgCl2, 10 μM GMPPNP (Guanosine 5′-[β,γ-imido]triphosphate trisodium salt hydrate, Sigma, G0635), […] 384-well assay plate at final concentrations of 50 nM, 6.25 nM and 1 nM, respectively. Compound was present in plate wells as a 16-point 3-fold dilution series starting at a final concentration of 10 μM and incubated for 3 hours. A mixture of MAb Anti-6His-XL665 (Cisbio, 61HISXLB) and Mab anti-GST-TB cryptate (Cisbio, 61GSTTLB) was then added at a final concentration of 6.67 nM and 0.21 nM, respectively, and the plate was incubated for an additional 1.5 hours. TR-FRET signal was read on a PHERstar FSX microplate reader (Ex320 nm, Em 665/615 nm). Compounds that facilitate disruption of the KRAS-BRAF complex were identified as those eliciting a decrease in the TR-FRET ratio relative to DMSO control wells.
# Sequence of KRAS G12C-BRAF complex (P01116-2 other isoform, or with tags, fused parts or gaps G12C): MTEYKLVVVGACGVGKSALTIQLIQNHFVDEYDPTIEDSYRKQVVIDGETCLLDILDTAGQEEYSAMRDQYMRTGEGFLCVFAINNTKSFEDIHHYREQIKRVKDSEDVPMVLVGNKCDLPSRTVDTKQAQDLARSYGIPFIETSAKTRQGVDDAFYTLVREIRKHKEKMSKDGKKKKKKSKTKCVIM
# Sequence of KRAS G12C-BRAF complex (P62937 whole entry): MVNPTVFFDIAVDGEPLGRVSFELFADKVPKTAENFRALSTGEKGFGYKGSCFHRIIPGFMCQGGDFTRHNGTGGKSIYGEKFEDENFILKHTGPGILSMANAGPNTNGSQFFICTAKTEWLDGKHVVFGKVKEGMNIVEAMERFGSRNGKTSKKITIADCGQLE
smiles,measurement,setting,value
"CO[C@@H](C)c1ncc(N2CCN(C)CC2)cc1-c1c2c3cc(cc4c3n1CCC4)-c1csc(n1)C[C@H](NC(=O)[C@H]1CC[C@](C)(O)CC1)C(=O)N1CCC[C@H](N1)C(=O)OCC(C)(C)C2 (atropisomer, axis not shown; (M)) [Example 71, trans-4-hydroxy-N-[(7S,13S)-(20M)-20-[2-[(1S)-1-methoxyethyl]-5-(4-methylpiperazin-1-yl)-3-pyridyl]-17,17-dimethyl-8,14-dioxo-15-oxa-4-thia-9,21,30,31-tetrazahexacyclo[23.3.1.1^2,5.1^9,13.0^19,27.0^21,26]hentriaconta-1 (28),2,5 (31), 19,25 (29),26-hexaen-7-yl]-4-methyl-cyclohexanecarboxamide]",IC50,[1],3.6 nM
same,IC50,[2],51.5 nM
same,IC50,[3],6.5 nM
same,IC50,KRAS G12C-BRAF complex,28.9 nM
"CO[C@@H](C)c1ncc(N2CCN(C)CC2)cc1-c1c2c3cc(cc4c3n1CCC4)-c1csc(n1)C[C@H](NC(=O)C13CC(CO1)C3)C(=O)N1CCC[C@H](N1)C(=O)OCC(C)(C)C2 [Example 66, N-[(7S,13S)-(20M)-20-[2-[(1S)-1-methoxyethyl]-5-(4-methylpiperazin-1-yl)-3-pyridyl]-17,17-dimethyl-8,14-dioxo-15-oxa-4-thia-9,21,30,31-tetrazahexacyclo[23.3.1.1^2,5.1^9,13.0^19,27.0^21,26]hentriaconta-1 (28),2,5 (31), 19,25 (29),26-hexaen-7-yl]-2-oxabicyclo[2.1.1]hexane-1-carboxamide]",IC50,[1],2.6 nM
same,IC50,[2],40.2 nM
same,IC50,[3],3.3 nM
same,IC50,KRAS G12C-BRAF complex,50.5 nM
"CO[C@@H](C)c1ncc(N2CCN(C)CC2)cc1-c1c2c3cc(cc4c3n1CCC4)-c1csc(n1)C[C@H](NC(=O)C1CCC(F)(F)C1)C(=O)N1CCC[C@H](N1)C(=O)OCC(C)(C)C2 (stereo partly drawn) [Example 65, 3,3-difluoro-N-[(7S,13S)-(20M)-20-[2-[(1S)-1-methoxyethyl]-5-(4-methylpiperazin-1-yl)-3-pyridyl]-17,17-dimethyl-8,14-dioxo-15-oxa-4-thia-9,21,30,31-tetrazahexacyclo[23.3.1.1^2,5.1^9,13.0^19,27.0^21,26]hentriaconta-1 (28),2,5 (31), 19,25 (29),26-hexaen-7-yl]cyclopentanecarboxamide]",IC50,[1],2.3 nM
same,IC50,[2],31.7 nM
same,IC50,[3],5 nM
same,IC50,KRAS G12C-BRAF complex,51.3 nM
"CO[C@@H](C)c1ncc(N2CCN(C)CC2)cc1-c1c2c3cc(cc4c3n1CCC4)-c1csc(n1)C[C@H](NC(=O)C1CCOCC1)C(=O)N1CCC[C@H](N1)C(=O)OCC(C)(C)C2 (atropisomer, axis not shown; (M)) [Example 77, N-[(7S,13S)-(20M)-20-[2-[(1S)-1-methoxyethyl]-5-(4-methylpiperazin-1-yl)-3-pyridyl]-17,17-dimethyl-8,14-dioxo-15-oxa-4-thia-9,21,30,31-tetrazahexacyclo[23.3.1.1^2,5.1^9,13.0^19,27.0^21,26]hentriaconta-1 (28),2,5 (31),19,25 (29),26-hexaen-7-yl]tetrahydropyran-4-carboxamide]",IC50,[1],4.4 nM
same,IC50,[2],26.1 nM
same,IC50,[3],4 nM
same,IC50,KRAS G12C-BRAF complex,41.8 nM
"CO[C@@H](C)c1ncc(N2CCN(C)CC2)cc1-c1c2c3cc(cc4c3n1CCC4)-c1csc(n1)C[C@H](NC(=O)C13C4CC1CC3C4)C(=O)N1CCC[C@H](N1)C(=O)OCC(C)(C)C2 (stereo partly drawn) [Example 72, N-[(7S,13S)-(20M)-20-[2-[(1S)-1-methoxyethyl]-5-(4-methylpiperazin-1-yl)-3-pyridyl]-17,17-dimethyl-8,14-dioxo-15-oxa-4-thia-9,21,30,31-tetrazahexacyclo[23.3.1.1^2,5.1^9,13.0^19,27.0^21,26]hentriaconta-1 (28),2,5 (31), 19,25 (29),26-hexaen-7-yl]tricyclo[3.1.1.0^3,6]heptane-6-carboxamide]",IC50,[1],2.3 nM
same,IC50,[2],41.5 nM
same,IC50,[3],4.8 nM
same,IC50,KRAS G12C-BRAF complex,31.5 nM
